In patent US11332470B2, “CXCR4 inhibitors and uses thereof” (X4 Pharmaceuticals, Inc., priority 2016, dated 2022):

Key:
[1] = biological target: T1, CXCR4 (Jurkat cells expressing CXCR4) (Homo sapiens, UniProt P61073); assay: Chemokine (CXCL12-AF647) binding inhibition assay; conditions: CXCL12-AF647 25 ng/mL, read-out: IC50 CXCL-12 binding Jurkat
T1 construct: Jurkat cells expressing CXCR4; endogenous in cells; host or cells: Jurkat
Method: Chemokine (CXCL12-AF647) Binding Inhibition Assay
Jurkat cells expressing CXCR4 were washed once with assay buffer (Hanks' balanced salt solution with 20 mM HEPES buffer and 0.2% bovine serum albumin, pH 7.4) and then incubated for 15 min at room temperature with the test compounds diluted in assay buffer at dose-dependent concentrations. Subsequently, CXCL12-AF647 (25 ng/mL) was added to the compound-incubated cells. The cells were incubated for 30 min at room temperature. Thereafter, the cells were washed twice in assay buffer, fixed in 1% paraformaldehyde in PBS, and analyzed on the FL4 channel of a FACSCalibur flow cytometer equipped with a 635-nm red diode laser (Becton Dickinson, San Jose, Calif., USA).
The percentages of inhibition of CXCL12-AF647 binding were calculated according to the formula: [1−((MFI−MFINC)/(MFIPC−MFINC))]×100 where MFI is the mean fluorescence intensity of the cells incubated with CXCL12-AF647 in the presence of the inhibitor, MFINC is the mean fluorescence intensity measured in the negative control (i.e., autofluorescence of unlabeled cells), and MFIPC is the mean fluorescence intensity of the positive control (i.e., cells exposed to CXCL12-AF647 alone).

in vitro = conditions: human, Caco-2, pH 7.4
Method: The goal of this assay was to evaluate the intestinal absorption potential of drug candidates using Caco-2 cell lines.
1. Prewarm Prewarm HBSS Buffer in 37° C. water bath
2. Sonicate Take compounds from −20° C., sonicate for a few minutes (no less than 1 minute)
• Donor solution buffer: For A-to-B Direction: HBSS buffer with 0.3% DMSO and 5 μM LY: add 150 μL DMSO and 50 μL LY (5 mM) into 50 ml HBSS buffer (pH 7.4). HBSS buffer with 0.1% DMSO and 5 μM LY: add 50 μL DMSO and 50 μL LY (5 mM) into 50 mL HBSS buffer (pH 7.4). For B-to-A Direction: HBSS buffer with 0.3% DMSO: add 150 μL DMSO into 50 ml HBSS buffer (pH 7.4). HBSS buffer with 0.1% DMSO: add 50 μL DMSO into 50 ml HBSS buffer (pH 7.4). Receiver Solution Buffer: For A-to-B Direction: Prepare HBSS buffer with 0.4% DMSO: add 200 μL DMSO into 50 ml HBSS buffer (pH 7.4). For B-to-A Direction: Prepare HBSS buffer with 0.4% DMSO and 5 μM LY: add 200 μL DMSO and 50 μL LY (5 mM) into 50 ml HBSS buffer (pH 7.4).
4. Measure TEER Take cell culture plate out of incubator, wash the cell monolayers with HBSS buffer, and then measure TEER values at Rm temperature. 5. Centrifuge Centrifuge the compound solution (from step 3) at 4000 rpm for 5 min before loading to donor chambers. 6. Dosing Add solution based on the volumes listed in the following table (make sure to take extra 100 μL of donor sample for TO as Backup).
7. Apical LYT0 samples To determine LY concentration in the apical chamber, take 100 μL sample from apical chambers into an opaque plate for LYT0. 8. Prewarm Prewarm apical and basolateral plates at 37° C. for about 5 min, then begin transport by placing the apical plate onto basolateral plate. 9. Incubation Keep the plates in incubator at 37° C. for 90 min. 10.
Prepare Working Solution in MeOH/H2O (1:1)
• Prepare 1×solution: 3 μL (20×)+57 μL of 0.4% DMSO HBSS+60 μL ACN with IS (Osalmid or Imipramine)−120 μL (1×) 11. Transport termination Separate the apical plate from the basolateral plate after 90-min incubation. 12. Measure LY Take 100 μL samples from basolateral plate to an opaque plate as LYT90. 13. Measure LY concentrations for LYT0 and LYT90 by Fluorometer (at excitation of 485 nm/emission of 535 nm). 14.
Study details: Test concentration 10 μM
Test systems: Caco-2/HBSS solution
Incubation conditions: 0, 90 min at 37° C.
Sample size: Duplicates (n=2)
Bioanalytical method: LC-MS/MS
For Millicell-24 Cell Culture Plates: surface area of the membrane=0.7 cm^2, VA=0.8 mL (A-to-B) or 0.4 mL (B-to-A)
The compound numbers correspond to the compound numbers in Table 1.

CXCR4 (U87.CXCR4 cells) = biological target: T2, CXCR4 (U87.CXCR4 cells) (Homo sapiens, UniProt P61073); assay: Intracellular CXCL-12-induced calcium mobilization assay (FLIPR); assay type: cell-based; conditions: CXCL-12 25-50 ng/mL, read-out: IC50 CXCL-12 Ca2+ flux U87.CXCR4+
T2 construct: expressed in transfected cells; host or cells: U87 (U87.CXCR4)
T2 sequence (P61073 whole entry): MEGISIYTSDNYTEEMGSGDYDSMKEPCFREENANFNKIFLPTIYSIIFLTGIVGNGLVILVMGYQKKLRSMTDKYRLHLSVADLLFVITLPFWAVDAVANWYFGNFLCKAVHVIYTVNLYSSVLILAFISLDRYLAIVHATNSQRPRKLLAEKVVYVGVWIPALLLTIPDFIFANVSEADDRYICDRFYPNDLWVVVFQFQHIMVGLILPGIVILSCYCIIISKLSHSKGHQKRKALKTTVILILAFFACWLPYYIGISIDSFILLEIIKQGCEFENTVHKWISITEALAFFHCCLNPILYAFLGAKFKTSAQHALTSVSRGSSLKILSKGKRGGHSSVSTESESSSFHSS
Method: Intracellular CXCL-12-Induced Calcium Mobilization Assay
Intracellular calcium mobilization induced by chemokines or chemokine-derived peptides were evaluated using a calcium responsive fluorescent probe and a FLIPR system. The CXCR-4 transfected U87 cell line (U87.CXCR4) cells were seeded in gelatine-coated black-wall 96-well plates at 20,000 cells per well and incubated for 12 hours. Cells were then loaded with the fluorescent calcium probe Fluo-2 acetoxymethyl at 4 μM final concentration in assay buffer (Hanks' balanced salt solution with 20 mM HEPES buffer and 0.2% bovine serum albumin, pH 7.4) for 45 min at 37° C. The intracellular calcium mobilization induced by the CXCL-12 (25-50 ng/mL) was then measured at 37° C. by monitoring the fluorescence as a function of time in all the wells simultaneously using a fluorometric imaging plate reader (FLIPR Tetra, Molecular Devices).

T1 sequence (P61073 whole entry): as above

Structure (SMILES)	IC50 [1]	Papp A→B at 90 min, 10 μM (in vitro)	Papp B→A at 90 min, 10 μM (in vitro)	efflux ratio at 90 min, 10 μM (in vitro)	IC50 (CXCR4 (U87.CXCR4 cells))
CN1CC=C(c2c(CN3CCCC3c3ccccn3)nc3ccccn23)CC1 (centres unmarked) [Compound I-79]	0.01 to 100 nM	0.1 to 10 ×10⁻⁶ cm/s	> 30 ×10⁻⁶ cm/s	0.1 to 10	0.01 to 100 nM
Cc1cccnc1C1CCCN1Cc1nccn1Cc1ccncc1 (centres unmarked) [Compound I-87]	100 to 1000 nM	10 to 30 ×10⁻⁶ cm/s	10 to 30 ×10⁻⁶ cm/s	0.1 to 10	≥ 1000 nM
N#CCCc1cccc2nc(CN3CCCC3c3ccccn3)cn12 (centres unmarked) [Compound I-84]	≥ 1000 nM	0.1 to 10 ×10⁻⁶ cm/s	> 30 ×10⁻⁶ cm/s	0.1 to 10	≥ 1000 nM
Cc1cccnc1C1CCCN1Cc1nc2cccc(N3CCN(C)C4(CC4)C3)c2[nH]1 (centres unmarked) [Compound I-28]	100 to 1000 nM	0.1 to 10 ×10⁻⁶ cm/s	10 to 30 ×10⁻⁶ cm/s	0.1 to 10	100 to 1000 nM
Cc1cccnc1C1CCCN1Cc1ncccc1CN1CCOCC1 (centres unmarked) [Compound I-118]	100 to 1000 nM	0.1 to 10 ×10⁻⁶ cm/s	> 30 ×10⁻⁶ cm/s	0.1 to 10	≥ 1000 nM
Cc1cccnc1C1CCCN1Cc1nccn1CC1CCN(CC(F)(F)F)CC1 (centres unmarked) [Compound I-106]	100 to 1000 nM	10 to 30 ×10⁻⁶ cm/s	> 30 ×10⁻⁶ cm/s	0.1 to 10	≥ 1000 nM
Cc1cccnc1C1CCCN1Cc1nc2cccc(N3CCN(C)CC3)n2c1F (centres unmarked) [Compound I-34]	100 to 1000 nM	0.1 to 10 ×10⁻⁶ cm/s	10 to 30 ×10⁻⁶ cm/s	0.1 to 10	100 to 1000 nM
c1ccc(C2CCCN2Cc2nc3ccccn3c2N2CCOCC2)nc1 (centres unmarked) [Compound I-91]	100 to 1000 nM	> 30 ×10⁻⁶ cm/s	> 30 ×10⁻⁶ cm/s	0.1 to 10	≥ 1000 nM
Cc1cccnc1C1CCCN1Cc1nc2cccc(N3CCN(C)CC3)c2s1 (centres unmarked) [Compound I-37]	100 to 1000 nM	10 to 30 ×10⁻⁶ cm/s	10 to 30 ×10⁻⁶ cm/s	0.1 to 10	≥ 1000 nM
Cc1cccnc1C1CCCN1Cc1ccccc1-n1cccn1 (centres unmarked) [Compound I-4, 2-(1-(2-(1H-pyrazol-1-yl)benzyl)pyrrolidin-2-yl)-3-methylpyridine]	≥ 1000 nM	> 30 ×10⁻⁶ cm/s	10 to 30 ×10⁻⁶ cm/s	0.1 to 10	100 to 1000 nM
c1ccc(C2CCCN2Cc2nc3ccccn3c2-c2ccncc2)nc1 (centres unmarked) [Compound I-80]	100 to 1000 nM	10 to 30 ×10⁻⁶ cm/s	> 30 ×10⁻⁶ cm/s	0.1 to 10	100 to 1000 nM

Further lines, results first:

IC50 [1]	Papp A→B at 90 min, 10 μM (in vitro)	Papp B→A at 90 min, 10 μM (in vitro)	efflux ratio at 90 min, 10 μM (in vitro)	IC50 (CXCR4 (U87.CXCR4 cells))	Structure (SMILES)
100 to 1000 nM	0.1 to 10 ×10⁻⁶ cm/s	10 to 30 ×10⁻⁶ cm/s	0.1 to 10	≥ 1000 nM	CN1CCN(C(=O)c2c(CN3CCCC3c3ccccn3)nc3ccccn23)CC1 (centres unmarked) [Compound I-123]
0.01 to 100 nM	10 to 30 ×10⁻⁶ cm/s	10 to 30 ×10⁻⁶ cm/s	0.1 to 10	0.01 to 100 nM	CN1CCN(c2c(CN3CCCC3c3ncccc3F)nc3ccccn23)CC1 (centres unmarked) [Compound I-60]
0.01 to 100 nM	10 to 30 ×10⁻⁶ cm/s	10 to 30 ×10⁻⁶ cm/s	0.1 to 10	100 to 1000 nM	CN1CCC(n2c(CN3CCCC3c3ccccn3)nc3ccccc32)CC1 (centres unmarked) [Compound I-54]
0.01 to 100 nM	0.1 to 10 ×10⁻⁶ cm/s	10 to 30 ×10⁻⁶ cm/s	0.1 to 10	0.01 to 100 nM	Cc1cccnc1C1CCCN1Cc1nc2c(N3CCN(C)CC3)cccc2[nH]1 (centres unmarked) [Compound I-11]
0.01 to 100 nM	0.1 to 10 ×10⁻⁶ cm/s	10 to 30 ×10⁻⁶ cm/s	> 30	100 to 1000 nM	CN1CCC(Cn2ccnc2CN2CCCC2c2ccccn2)CC1 (centres unmarked) [Compound I-112]
0.01 to 100 nM	> 30 ×10⁻⁶ cm/s	> 30 ×10⁻⁶ cm/s	0.1 to 10	100 to 1000 nM	c1ccc(C2CCCN2Cc2nc3ccccn3c2N2CCN(c3ccccn3)CC2)nc1 (centres unmarked) [Compound I-97]
0.01 to 100 nM	> 30 ×10⁻⁶ cm/s	> 30 ×10⁻⁶ cm/s	0.1 to 10	100 to 1000 nM	FC(F)(F)CN1CCN(c2c(CN3CCCC3c3ccccn3)nc3ccccn23)CC1 (centres unmarked) [Compound I-98]
0.01 to 100 nM	0.1 to 10 ×10⁻⁶ cm/s	10 to 30 ×10⁻⁶ cm/s	> 30	100 to 1000 nM	Cc1cccnc1C1CCCN1Cc1nc2cccc(N3CCN(C)CC3)n2c1CO (centres unmarked) [Compound I-8, (5-(4-methylpiperazin-1-yl)-2-((2-(3-methylpyridin-2-yl)pyrrolidin-1-yl)methyl)imidazo[1,2-a]pyridin-3-yl)methanol]
0.01 to 100 nM	0.1 to 10 ×10⁻⁶ cm/s	10 to 30 ×10⁻⁶ cm/s	10 to 30	0.01 to 100 nM	CN1CCN(c2c(CN3CCCC3c3nccn3C)nc3ccccn23)CC1 (centres unmarked) [Compound I-69]
0.01 to 100 nM	10 to 30 ×10⁻⁶ cm/s	> 30 ×10⁻⁶ cm/s	0.1 to 10	100 to 1000 nM	CN1CCN(c2cccc3nc(CN4CCCC4c4ccccn4)[nH]c23)CC1 (centres unmarked) [Compound I-44]
0.01 to 100 nM	0.1 to 10 ×10⁻⁶ cm/s	10 to 30 ×10⁻⁶ cm/s	0.1 to 10	100 to 1000 nM	CN1CCN(c2cccc3nc(CN4CCCC4c4nccc5ccccc45)cn23)CC1 (centres unmarked) [Compound I-14]
0.01 to 100 nM	0.1 to 10 ×10⁻⁶ cm/s	10 to 30 ×10⁻⁶ cm/s	0.1 to 10	≥ 1000 nM	Cc1cccnc1C1CCCN1Cc1nccn1CCCCN1CCOCC1 (centres unmarked) [Compound I-111]
0.01 to 100 nM	0.1 to 10 ×10⁻⁶ cm/s	10 to 30 ×10⁻⁶ cm/s	0.1 to 10	100 to 1000 nM	Cc1cccnc1CN1CCCC1c1nccn1CC1CCN(C)CC1 (centres unmarked) [Compound I-92]
0.01 to 100 nM	0.1 to 10 ×10⁻⁶ cm/s	> 30 ×10⁻⁶ cm/s	10 to 30	100 to 1000 nM	Cc1cccnc1C1CCCN1Cc1nc2ccccn2c1CN1CCOCC1 (centres unmarked) [Compound I-119]
